Measurements reported in article PMC9064041 (Journal of medicinal chemistry, 2020).
Values after ≈ are worked out from the molar mass of the structure shown.

Tested on: C. difficile ATCC BAA 1801
Assay: MIC, broth microdilution, initial screening
Type: cell-based, Clostridioides difficile
Details: for MIC: C. difficile ATCC BAA 1801, anaerobic, 48 hours
[1] = Clostridioides difficile, BAA1801, 48 h

SMILES | MIC [1] | activity against C. difficile ATCC BAA 1801 in words | MIC
O=C(Nc1nnc(-c2cccc(F)c2)o1)c1ccc(SC(F)(F)F)cc1 [compound 4, N-(5-(3-Fluorophenyl)-1,3,4-oxadiazol-2-yl)-4-((trifluoromethyl)thio)benzamide] | 0.03 µg/mL (≈ 0.0783 µM) | – | –
O=C(Nc1nnc(-c2cccc(Cl)c2)o1)c1ccc(SC(F)(F)F)cc1 [compound 5, N-(5-(3-Chlorophenyl)-1,3,4-oxadiazol-2-yl)-4-((trifluoromethyl)thio)benzamide] | 0.03 µg/mL (≈ 0.075 µM) | – | –
COc1cccc(-c2nnc(NC(=O)c3ccc(SC(F)(F)F)cc3)o2)c1 [compound 6, N-(5-(3-Methoxyphenyl)-1,3,4-oxadiazol-2-yl)-4-((trifluoromethyl)thio)benzamide] | 4 µg/mL (≈ 10.1 µM) | only moderate to no actvity | –
O=C(Nc1nnc(-c2cccc(C(F)(F)F)c2)o1)c1ccc(SC(F)(F)F)cc1 [compound 7, N-(5-(3-Trifluoromethylphenyl)-1,3,4-oxadiazol-2-yl)-4-((trifluoromethyl)thio)benzamide] | 0.015 µg/mL (≈ 0.0346 µM) | – | –
O=C(Nc1nnc(-c2ccc(F)cc2)o1)c1ccc(SC(F)(F)F)cc1 [compound 8, N-(5-(4-Fluorophenyl)-1,3,4-oxadiazol-2-yl)-4-((trifluoromethyl)thio)benzamide] | 4 µg/mL (≈ 10.4 µM) | – | –
O=C(Nc1nnc(-c2ccc(Cl)cc2)o1)c1ccc(SC(F)(F)F)cc1 [compound 9, N-(5-(4-Chlorophenyl)-1,3,4-oxadiazol-2-yl)-4-((trifluoromethyl)thio)benzamide] | 2 µg/mL (≈ 5 µM) | – | –
O=C(Nc1nnc(-c2ccc(C(F)(F)F)cc2)o1)c1ccc(SC(F)(F)F)cc1 [compound 10, N-(5-(4-Trifluoromethylphenyl)-1,3,4-oxadiazol-2-yl)-4-((trifluoromethyl)thio)benzamide] | 0.125 µg/mL (≈ 0.288 µM) | – | –
COc1ccc(-c2nnc(NC(=O)c3ccc(SC(F)(F)F)cc3)o2)cc1 [compound 11, N-(5-(4-Methoxyphenyl)-1,3,4-oxadiazol-2-yl)-4-((trifluoromethyl)thio)benzamide] | 4 µg/mL (≈ 10.1 µM) | only moderate to no actvity | –
CC(C)c1ccc(-c2nnc(NC(=O)c3ccc(SC(F)(F)F)cc3)o2)cc1 [compound 13, N-(5-(4-Isopropylphenyl)-1,3,4-oxadiazol-2-yl)-4-((trifluoromethyl)thio)benzamide] | 128 µg/mL (≈ 314 µM) | only moderate to no actvity | –
O=C(Nc1nnc(-c2ccc(Cl)cc2Cl)o1)c1ccc(SC(F)(F)F)cc1 [compound 14, N-(5-(2,4-Dichlorophenyl)-1,3,4-oxadiazol-2-yl)-4-((trifluoromethyl)thio)benzamide] | 0.06 µg/mL (≈ 0.138 µM) | – | 0.03 µg/mL (≈ 0.0691 µM)
COc1ccc(Cl)cc1-c1nnc(NC(=O)c2ccc(SC(F)(F)F)cc2)o1 [compound 16, N-(5-(5-Chloro-2-methoxyphenyl)-1,3,4-oxadiazol-2-yl)-4-((trifluoromethyl)thio)benzamide] | 2 µg/mL (≈ 4.65 µM) | – | –
O=C(Nc1nnc(-c2ccccn2)o1)c1ccc(SC(F)(F)F)cc1 [compound 17, N-(5-(Pyridin-2-yl)-1,3,4-oxadiazol-2-yl)-4-((trifluoromethyl)thio)benzamide] | 8 µg/mL (≈ 21.8 µM) | only moderate activity | –
